# Assay results from PubChem BioAssay (NCI).
#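 The compound was tested at five concentrations on cells cultured in 96-well plates, with a 48-hour exposure period. GI50 marks 50% less growth. TGI: total growth inhibition.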
# Experiments:
# Assay in all cases: growth of human tumour cells (NCI), 48 h
# 786-0 renal = system: 786-0 renal
# A498 renal = system: A498 renal
# A549 NSCLC = system: A549 NSCLC
# BT-549 breast = system: BT-549 breast
# CAKI-1 renal = system: CAKI-1 renal
# CCRF-CEM leukemia = system: CCRF-CEM leukemia
# DU-145 prostate = system: DU-145 prostate
# EKVX NSCLC = system: EKVX NSCLC
# HCC-2998 colon = system: HCC-2998 colon
# HCT-116 colon = system: HCT-116 colon
# HCT-15 colon = system: HCT-15 colon
# HL-60(TB) leukemia = system: HL-60(TB) leukemia
# HOP-62 NSCLC = system: HOP-62 NSCLC
# HOP-92 NSCLC = system: HOP-92 NSCLC
# HS 578T breast = system: HS 578T breast
# HT29 colon = system: HT29 colon
# IGROV1 ovarian = system: IGROV1 ovarian
# K-562 leukemia = system: K-562 leukemia
# KM12 colon = system: KM12 colon
# M14 melanoma = system: M14 melanoma
# MALME-3M melanoma = system: MALME-3M melanoma
# MCF7 breast = system: MCF7 breast
# MDA-MB-231 breast = system: MDA-MB-231 breast
# MDA-MB-435 = system: MDA-MB-435
# NCI-H226 lung = system: NCI-H226 lung
# NCI-H23 lung = system: NCI-H23 lung
# NCI-H460 lung = system: NCI-H460 lung
# NCI-H522 lung = system: NCI-H522 lung
# NCI/ADR-RES ovarian = system: NCI/ADR-RES ovarian
# OVCAR-3 ovarian = system: OVCAR-3 ovarian
# OVCAR-4 ovarian = system: OVCAR-4 ovarian
# OVCAR-5 ovarian = system: OVCAR-5 ovarian
# OVCAR-8 ovarian = system: OVCAR-8 ovarian
# PC-3 prostate = system: PC-3 prostate
# RPMI-8226 leukemia = system: RPMI-8226 leukemia
# RXF 393 renal = system: RXF 393 renal
# SF-268 CNS = system: SF-268 CNS
# SF-295 CNS = system: SF-295 CNS
# SF-539 CNS = system: SF-539 CNS
# SK-MEL-2 melanoma = system: SK-MEL-2 melanoma
# SK-MEL-28 melanoma = system: SK-MEL-28 melanoma
# SK-MEL-5 melanoma = system: SK-MEL-5 melanoma
# SK-OV-3 ovarian = system: SK-OV-3 ovarian
# SN12C renal = system: SN12C renal
# SNB-19 CNS = system: SNB-19 CNS
# SNB-75 CNS = system: SNB-75 CNS
# SR leukemia = system: SR leukemia
# SW-620 colon = system: SW-620 colon
# T-47D breast = system: T-47D breast
# TK-10 renal = system: TK-10 renal
# U251 CNS = system: U251 CNS
# UACC-257 melanoma = system: UACC-257 melanoma
# UACC-62 melanoma = system: UACC-62 melanoma
smiles,measurement,setting,value
O=C(Nc1ccc(CN2CCOCC2)cc1)c1[nH]ncc1Nc1ncnc2sccc12,GI50,786-0 renal,480 nM
same,TGI,786-0 renal,7.96 µM
same,GI50,A498 renal,36.3 nM
same,TGI,A498 renal,461 nM
same,GI50,A549 NSCLC,306 nM
same,TGI,A549 NSCLC,13.8 µM
same,GI50,BT-549 breast,896 nM
same,TGI,BT-549 breast,5.88 µM
same,GI50,CAKI-1 renal,477 nM
same,TGI,CAKI-1 renal,> 100 µM
same,GI50,CCRF-CEM leukemia,337 nM
same,TGI,CCRF-CEM leukemia,27.7 µM
same,GI50,DU-145 prostate,382 nM
same,TGI,DU-145 prostate,15.5 µM
same,GI50,EKVX NSCLC,805 nM
same,TGI,EKVX NSCLC,4.3 µM
same,GI50,HCC-2998 colon,680 nM
same,TGI,HCC-2998 colon,5.08 µM
same,GI50,HCT-116 colon,217 nM
same,TGI,HCT-116 colon,12.3 µM
same,GI50,HCT-15 colon,277 nM
same,TGI,HCT-15 colon,16.7 µM
same,GI50,HL-60(TB) leukemia,249 nM
same,TGI,HL-60(TB) leukemia,720 nM
same,GI50,HOP-62 NSCLC,669 nM
same,TGI,HOP-62 NSCLC,41.6 µM
same,GI50,HOP-92 NSCLC,5.52 µM
same,TGI,HOP-92 NSCLC,> 100 µM
same,GI50,HS 578T breast,140 nM
same,TGI,HS 578T breast,4.81 µM
same,GI50,HT29 colon,686 nM
same,TGI,HT29 colon,> 100 µM
same,GI50,IGROV1 ovarian,578 nM
same,TGI,IGROV1 ovarian,23.6 µM
same,GI50,K-562 leukemia,402 nM
same,TGI,K-562 leukemia,> 100 µM
same,GI50,KM12 colon,311 nM
same,TGI,KM12 colon,10.1 µM
same,GI50,M14 melanoma,560 nM
same,TGI,M14 melanoma,13 µM
same,GI50,MALME-3M melanoma,1830 nM
same,TGI,MALME-3M melanoma,8.61 µM
same,GI50,MCF7 breast,265 nM
same,TGI,MCF7 breast,> 100 µM
same,GI50,MDA-MB-231 breast,854 nM
same,TGI,MDA-MB-231 breast,> 100 µM
same,GI50,MDA-MB-435,525 nM
same,TGI,MDA-MB-435,11.7 µM
same,GI50,NCI-H226 lung,163 nM
same,TGI,NCI-H226 lung,630 nM
same,GI50,NCI-H23 lung,358 nM
same,TGI,NCI-H23 lung,2490 nM
same,GI50,NCI-H460 lung,314 nM
same,TGI,NCI-H460 lung,10.9 µM
same,GI50,NCI-H522 lung,413 nM
same,TGI,NCI-H522 lung,4.17 µM
same,GI50,NCI/ADR-RES ovarian,578 nM
same,TGI,NCI/ADR-RES ovarian,> 100 µM
same,GI50,OVCAR-3 ovarian,290 nM
same,TGI,OVCAR-3 ovarian,2810 nM
same,GI50,OVCAR-4 ovarian,600 nM
same,TGI,OVCAR-4 ovarian,6.28 µM
same,GI50,OVCAR-5 ovarian,904 nM
same,TGI,OVCAR-5 ovarian,> 100 µM
same,GI50,OVCAR-8 ovarian,522 nM
same,TGI,OVCAR-8 ovarian,22.4 µM
same,GI50,PC-3 prostate,494 nM
same,TGI,PC-3 prostate,> 100 µM
same,GI50,RPMI-8226 leukemia,517 nM
same,TGI,RPMI-8226 leukemia,4.33 µM
same,GI50,RXF 393 renal,204 nM
same,TGI,RXF 393 renal,639 nM
same,GI50,SF-268 CNS,595 nM
same,TGI,SF-268 CNS,5.6 µM
same,GI50,SF-295 CNS,484 nM
same,TGI,SF-295 CNS,16.5 µM
same,GI50,SF-539 CNS,141 nM
same,TGI,SF-539 CNS,1150 nM
same,GI50,SK-MEL-2 melanoma,360 nM
same,TGI,SK-MEL-2 melanoma,2140 nM
same,GI50,SK-MEL-28 melanoma,629 nM
same,TGI,SK-MEL-28 melanoma,16.8 µM
same,GI50,SK-MEL-5 melanoma,223 nM
same,TGI,SK-MEL-5 melanoma,638 nM
same,GI50,SK-OV-3 ovarian,103 nM
same,TGI,SK-OV-3 ovarian,> 100 µM
same,GI50,SN12C renal,390 nM
same,TGI,SN12C renal,> 100 µM
same,GI50,SNB-19 CNS,703 nM
same,TGI,SNB-19 CNS,> 100 µM
same,GI50,SNB-75 CNS,17.4 nM
same,TGI,SNB-75 CNS,2040 nM
same,GI50,SR leukemia,261 nM
same,TGI,SR leukemia,989 nM
same,GI50,SW-620 colon,418 nM
same,TGI,SW-620 colon,> 100 µM
same,GI50,T-47D breast,739 nM
same,TGI,T-47D breast,> 100 µM
same,GI50,TK-10 renal,1640 nM
same,TGI,TK-10 renal,> 100 µM
same,GI50,U251 CNS,281 nM
same,TGI,U251 CNS,13.2 µM
same,GI50,UACC-257 melanoma,1960 nM
same,TGI,UACC-257 melanoma,25.2 µM
same,GI50,UACC-62 melanoma,707 nM
same,TGI,UACC-62 melanoma,5.7 µM
